Test results published in patent publication EP0196849A2, “Aminohydroxyalkylbenzene anti-obesity and/or anti-hyperglycaemic agents” (BEECHAM GROUP PLC, priority 1985, dated 1986).

Tested on: Female CFLP mice
Experiment: Anti-hyperglycaemic activity: subcutaneous glucose load in fasted mice, area under blood glucose curve
Assay type: in vivo
Details: 24 h fasted female CFLP mice, glucose 1 g/kg s.c. 30 min after dosing, 2-hour AUC vs water controls
Experimental: Female CFLP mice, weighing approximately 25g, were fasted for 24 hours prior to the study. The compounds under study were administered orally as an aqueous solution to each of 6 mice. Thirty minutes later a blood sample (20ul) was obtained from the tail for the analysis of blood glucose. Immediately after taking this blood sample, glucose (lg/kg body weight) was administered subcutaneously to each mouse. Six mice were given water as a control. Blood samples were then obtained from each mouse at 30 minute intervals for 120 minutes.
Compounds that produced a significant (p<0.05) reduction of blood glucose, compared with control mice given water, at any time interval were considered active. The area under the blood glucose curve over the 2-hour period after the administration of the glucose was calculated for each compound and compared with the value for control animals.

[1] = Dose 5 µmol/kg orally as aqueous solution

## O[C@@H](CNCCc1ccc(CCNC[C@H](O)c2ccccc2)cc1)c1ccccc1 [Example 4, (R,R)-a,a'-[1,4-Phenylenebis [(2,1-ethanediyl)imino]-methylene]bis[benzenemethanol]]
Dose 12.5 µmol/kg orally as aqueous solution
  % Reduction in area under blood glucose curve: 4.2%

## C[C@H](Cc1ccc(C[C@@H](C)NC[C@H](O)c2cccc(Cl)c2)cc1)NC[C@H](O)c1cccc(Cl)c1 [Example 2, (R,R,R,R)-α,α'-[1,4-Phenylenebis[(1-methyl-2,1-ethanediyl)imino]methylene]bis[3-chlorobenzenemethanol]]
Dose 25 µmol/kg orally as aqueous solution
  % Reduction in area under blood glucose curve: 49%

## O[C@@H](CNCCOc1ccc(OCCNC[C@H](O)c2cccc(Cl)c2)cc1)c1cccc(Cl)c1 [Example 5, (R,R)-α,α^1-[1,4-Phenylenedioxybis[(2,1-ethanediyl)-imino]methylene]bis[3-chlorobenzenemethanol]]
Dose 2.5 µmol/kg orally as aqueous solution
  % Reduction in area under blood glucose curve: 30%

## O[C@@H](CNCCc1ccc(CCNC[C@H](O)c2cccc(Cl)c2)cc1)c1cccc(Cl)c1 [Example 6, (R,R)-a,a'-[1,4-Phenylenebis[(2,1-ethanediyl]imino]-methylene]bis[3-chlorobenzenemethanol]]
[1]
  % Reduction in area under blood glucose curve: 48%

## O[C@@H](CNCCOc1ccc(OCCNC[C@H](O)c2ccccc2)cc1)c1ccccc1 [Example 3, (R,R)-a-a'-[1,4-Phenylenedioxybis [(2,1-ethanediyl)-imino]methylene] bis [benzenemethanol]]
[1]
  % Reduction in area under blood glucose curve: 10%
